From patent US20250223281A1, “ANTIDIABETIC COMPOUNDS AND COMPOSITIONS” (REZUBIO PHARMACEUTICALS CO., LTD, priority 2022, published 2025) come the findings set out here.

This assay has as its target T1, GPR40 (Homo sapiens, UniProt O14842).
T1 construct: expressed in transfected cells; host or cells: HEK293 cells stably expressing GPR40 (Hygromycin selection)
Briefly: IP1 accumulation assay in HEK293 cells stably expressing GPR40. In kind it is cell-based. The procedure:
IP1 accumulation assay was used to evaluate the potency of compounds. HEK293 cells stably expressing GPR40 were cultured in 5% CO2 incubator (ThermoFisher) in maintenance media (Dulbecco's modified Eagle's medium with 4.5 g/L of glucose, 10% fetal bovine serum, 100 μg/mL Hygromycin, and Penicillin (100 U/mL)/Streptomycin (100 μg/mL)) till 100% confluency. Cells were harvested freshly, spun down at 300×g for 5 min, and resuspended in pre-warmed 1× stimulant buffer from Cisbio IP-One HTRF Detection kit (Cisbio). Cell density was adjusted to 2.0×10^6 cells/mL. DMSO was used as blank control and AMG-1638 (CAS #: 1142214-62-7) as positive control. Compounds were prepared at 10 mM in DMSO and 5 nL of 3× serially diluted compounds (10 concentrations) were added to each well of the 384-LDV assay plate (Corning) by using ECHO 550 (Labcyte). Five μL of cells in suspension were transferred into each well by using Multidrop Combi Reagent Dispenser (ThermoFisher). Assay plate was then sealed and incubated at 37° C. for 2 hours. IP-d2 reagent and anti-IP1 reagent were prepared following the manual (Cisbio). Five μL of IP1-d2 and then 5 μL of anti-IP1 antibody was added to each well sequentially. Assay plate was incubated at room temperature for 60 min and then read at 665 nm/615 nm on an Envision plate reader (PerkinElmer). The ratio of values obtained at 665 nm and 615 nm was used for calculation of IP1 accumulation: % Effect=(Ratiosample−Ratioblank)/(RatioAMG-1638−Ratioblank)×100. Dose curve was fitted and EC50 of each compound was calculated by using XLFit.

[1] abbreviates: IP1 accumulation, HEK293 cells stably expressing GPR40, 2 hours at 37° C., % effect relative to AMG-1638, table of Biological Example 1.
The mark [2] stands for this setting: Tables A-1a to A-7b (structure-property relationship), obtained by methods of Biological Example 1.
The mark [3] stands for this setting: Table A-8 (additional examples), obtained by methods of Biological Example 1.

T1 sequence (O14842 whole entry): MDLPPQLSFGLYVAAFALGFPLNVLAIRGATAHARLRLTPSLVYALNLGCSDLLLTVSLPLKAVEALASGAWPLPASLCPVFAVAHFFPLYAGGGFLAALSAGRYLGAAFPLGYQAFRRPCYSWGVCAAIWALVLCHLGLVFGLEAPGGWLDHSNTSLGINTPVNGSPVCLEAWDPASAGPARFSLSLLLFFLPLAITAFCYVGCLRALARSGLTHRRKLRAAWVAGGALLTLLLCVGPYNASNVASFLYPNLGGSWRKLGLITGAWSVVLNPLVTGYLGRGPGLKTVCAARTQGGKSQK

Consider `COc1ccc(C(=O)N(CC(C)(C)CCn2cc(CCCCCCC(=O)NCCN(CCC(=O)NCCN)CCC(=O)NCCN)nn2)c2cccc(C)n2)c(N2CCC(COc3cc([C@@H](CC(=O)O)C4CC4)ccn3)CC2)c1` [Example 196], for which the EC50 turned out to be 9870 nM under setting [1] and 9870 nM under setting [2]. `COc1ccc(F)c(-c2ccc(COc3cccc([C@@H](CC(=O)O)C4CC4)c3)cc2CC(C)(C)Cn2cc(CCCCC(=O)NCCN(CCC(=O)NCCN)CCC(=O)NCCN)nn2)c1` [Example 219] displayed an EC50 under setting [1] of over 10000 nM. Take `COc1ccc(C(=O)N(CC(C)(C)CCn2cc(CCCCCCCCC(=O)NCCC[N+](C)(CC(=O)[O-])CC(=O)O)nn2)c2cccc(C)n2)c(N2CCC(COc3cc([C@@H](CC(=O)O)C4CC4)ccn3)CC2)c1` (stereo partly shown) [Example 217]: the EC50 reads like this: under setting [1], 683 nM; under setting [2], 683 nM. For `COc1ccc(C(=O)N(CC(C)(C)CCCCCCn2cc(CCCCCCCCCCC(=O)NCCN(CCC(=O)NCCN)CCC(=O)NCCN)nn2)c2cccc(C)n2)c(N2CCC(COc3cc([C@@H](CC(=O)O)C4CC4)ccn3)CC2)c1` [Example 68], the EC50 under setting [1] was found to be 1 nM and the EC50 under setting [2] is 1.79 nM. As to `COc1ccc(C(=O)N(CC(C)(C)CCCCCCn2cc(CCCCCCCCCCCCCC(=O)NCCC[N+](C)(CC(=O)[O-])CC(=O)O)nn2)c2cccc(C)n2)c(N2CCC(COc3cc([C@@H](CC(=O)O)C4CC4)ccn3)CC2)c1` (stereo partly shown) [Example 210], a half-maximal response under setting [1] (EC50) required 0.54 nM. Take `COc1ccc(F)c(-c2ccc(COc3cccc([C@@H](CC(=O)O)C4CC4)c3)cc2CC(C)(C)Cn2cc(CCCCCCCCCCC(=O)NCCN(CCC(=O)NCCN)CCC(=O)NCCN)nn2)c1` [Example 56]: the EC50 reads like this: under setting [1], 1760 nM; under setting [2], 1760 nM. For the compound `C[C@H](C(=O)O)[C@H](c1ccc2c(c1)O[C@@H](C1CCN(Cc3cc(-n4cc(COCCOCCOCCOCC(=O)NCCN(CCC(=O)NCCN)CCC(=O)NCCN)nn4)ccc3OC(F)(F)F)CC1)CC2)C1CC1` [Example 172], the EC50 amounted to 5240 nM under setting [1] and 5240 nM under setting [3]. The compound `COc1ccc(C(=O)N(CC(C)(C)CCCCCCn2cc(CCCCCCCCC(=O)NCCN(CCC(=O)NCCN)CCC(=O)NCCN)nn2)c2cccc(C)n2)c(N2CCC(COc3cc([C@@H](CC(=O)O)C4CC4)ccn3)CC2)c1` [Example 75] came in with an EC50 under setting [1] of 0.75 nM and an EC50 under setting [2] of 1.92 nM.

The compound `CCCCCOC(=O)CCCCCCCCCCCCCCCCCc1cn(CC(C)(C)Cc2cc(COc3cccc([C@@H](CC(=O)O)C4CC4)c3)ccc2-c2cc(OC)ccc2F)nn1` [Example 85] had an EC50 under setting [1] of over 1300 nM. On to `COc1ccc(F)c(-n2nnc(COc3cccc([C@@H](CC(=O)O)C4CC4)c3)c2CC(C)(C)Cn2cc(CCCCCCCCCCCCCCCC(=O)NCCN(CCC(=O)NCCN)CCC(=O)NCCN)nn2)c1` [Example 179], for which the concentration giving a half-maximal response (EC50) under setting [1] is 50 nM.

As to `COc1ccc(F)c(-c2ccc(COc3cccc([C@@H](CC(=O)O)C4CC4)c3)cc2CC(C)(C)Cn2cc(CCCCCCC(=O)NCC[N+](C)(CCC(=O)NCCN)CCC(=O)NCCN)nn2)c1` [Example 95], the EC50 by setting is: under setting [1], over 10000 nM; under setting [2], over 10000 nM. For `COc1ccc(F)c(-c2ccc(COc3cccc([C@@H](CC(=O)O)C4CC4)c3)cc2CC(C)(C)Cn2cc(CCCCCCCCCCCCCCCC(=O)NCCC[N+](C)(CC(=O)[O-])CC(=O)O)nn2)c1` (stereo partly shown) [Example 123], a half-maximal effect under setting [1] (EC50) was put at 32.7 nM. Regarding `COc1ccc(C(=O)N(CC(C)(C)CCCCCCn2cc(CCCCCCCCCCC(=O)NCCN(CCC(=O)NCCN)CCC(=O)NCCN)nn2)c2cccc(C)n2)c(N2CCC(COc3cc([C@@H](CC(=O)O)C4CC4)ccn3)CC2)c1` [Example 74], the EC50 under setting [1] was 2.99 nM and it took 2.99 nM to reach a half-maximal effect under setting [2] (EC50). On to `COc1ccc(C(=O)N(CC(C)(C)CCn2cc(CCCCCCCCCCCCCCCCC(=O)NCCC[N+](C)(CC(=O)[O-])CC(=O)O)nn2)c2cccc(C)n2)c(N2CCC(COc3cc([C@@H](CC(=O)O)C4CC4)ccn3)CC2)c1` (stereo partly shown) [Example 133], for which the EC50 runs as follows: under setting [1], 0.08 nM; under setting [2], 0.08 nM.

`COc1ccc(F)c(-c2ccc(COc3cccc([C@@H](CC(=O)O)C4CC4)c3)cc2CC(C)(C)Cc2cn(CCCCCCCCCCCCCCCCCC(=O)NCC[N+](C)(CCC(=O)NCCN)CCC(=O)NCCN)nn2)c1` [Example 24]: the EC50 is, setting by setting: under setting [1], 2.04 nM; under setting [2], 2.04 nM. For the compound `COc1ccc(F)c(-c2ccc(COc3cccc([C@@H](CC(=O)O)C4CC4)c3)cc2CC(C)(C)Cn2cc(CCCCCCCCCC(=O)NCCN(CCC(=O)NCCN)CCC(=O)NCCN)nn2)c1` [Example 191], the EC50 is 204 nM under setting [1], 209 nM under setting [3] and 204 nM under setting [2].

For the compound `COc1ccc(F)c(-c2ccc(COc3cccc([C@@H](CC(=O)O)C4CC4)c3)cc2CC(C)(C)Cn2cc(CCCCCCCCCCCCCCCCCC(=O)NCCCN(CC(=O)O)CC(=O)O)nn2)c1` [Example 81], under setting [1], a half-maximal response (EC50) required 2.2 nM.

As for `COc1ccc(C(=O)N(CC(C)(C)CCCCCCn2cc(CCCCCCCCCCCC(=O)NCCC[N+](C)(CC(=O)[O-])CC(=O)O)nn2)c2cccc(C)n2)c(N2CCC(COc3cc([C@@H](CC(=O)O)C4CC4)ccn3)CC2)c1` (stereo partly shown) [Example 209], under setting [1], the EC50 worked out at 1 nM. On the same count and under the same terms, the figure for `COc1ccc(C(=O)N(CC(C)(C)CCCCCCn2cc(CCCCCCCCCCCCCCCCCC(=O)NCC[N+](C)(C)C)nn2)c2cccc(C)n2)c(N2CCC(COc3cc([C@@H](CC(=O)O)C4CC4)ccn3)CC2)c1` [Example 44] is 1.74 nM. For `COc1ccc(F)c(-c2ccc(COc3cccc([C@@H](CC(=O)O)C4CC4)c3)cc2CC(C)(C)Cn2cc(CCCCCCCCCCCCC(=O)NCCN(CCC(=O)NCCN)CCC(=O)NCCN)nn2)c1` [Example 16], the EC50 by setting is: under setting [1], 460 nM; under setting [3], 706 nM; under setting [2], 460 nM.

The compound `COc1ccc(C(=O)N(CC(C)(C)CCn2cc(CCCCCCCCCC(=O)NCC[N+](C)(CCC(=O)NCCN)CCC(=O)NCCN)nn2)c2cccc(C)n2)c(N2CCC(COc3cc([C@@H](CC(=O)O)C4CC4)ccn3)CC2)c1` [Example 201] displayed an EC50 under setting [1] of 44.6 nM, an EC50 under setting [3] of 45 nM and an EC50 under setting [2] of 45 nM. Consider `C[C@H](C(=O)O)[C@H](c1ccc2c(c1)O[C@@H](C1CCN(Cc3cc(-n4cc(CCCCCCCCCCCCCCCC(=O)NCCN(CCC(=O)NCCN)CCC(=O)NCCN)nn4)ccc3OC(F)(F)F)CC1)CC2)C1CC1` [Example 185], for which the EC50 reads like this: under setting [1], 0.05 nM; under setting [3], 0.05 nM; under setting [2], 0.05 nM. Take `COc1ccc(F)c(-c2ccc(COc3cccc([C@@H](CC(=O)O)C4CC4)c3)cc2CC(C)(C)Cn2cc(CCCCCCCCCCCCCC(=O)NCCN(CCC(=O)NCCN)CCC(=O)NCCN)nn2)c1` [Example 55]: the concentration giving a half-maximal response (EC50) reads like this: under setting [1], 138 nM; under setting [2], 138 nM. For `COc1ccc(F)c(-c2ccc(COc3cccc([C@@H](CC(=O)O)C4CC4)c3)cc2OC(C)(C)Cn2cc(CCCCCCCCCCC(=O)NCC[N+](C)(CCC(=O)NCCN)CCC(=O)NCCN)nn2)c1` [Example 141], under setting [1], the midpoint of the response, the EC50, lay at 1650 nM. Take `COc1ccc(C(=O)N(CC(C)(C)CCCCCCn2cc(CCCCCCC(=O)NCCN(CCC(=O)NCCN)CCC(=O)NCCN)nn2)c2cccc(C)n2)c(N2CCC(COc3cc([C@@H](CC(=O)O)C4CC4)ccn3)CC2)c1` [Example 98]: the EC50 reads like this: under setting [1], 3.54 nM; under setting [2], 3.54 nM. Compound `COc1ccc(F)c(-c2ccc(COc3cccc([C@@H](CC(=O)O)C4CC4)c3)cc2OC(C)(C)Cn2cc(CCCCCCCCC(=O)NCCN(CCC(=O)NCCN)CCC(=O)NCCN)nn2)c1` [Example 136] returned an EC50 under setting [1] of 1230 nM.

As for `COc1ccc(F)c(-c2ccc(COc3cccc([C@@H](CC(=O)O)C4CC4)c3)cc2C(C)(C)c2cn(CCCCCCCCCCCCCCCCCC(=O)NCCN(CCC(=O)NCCN)CCC(=O)NCCN)nn2)c1` [Example 10], under setting [1], the 50% effective concentration (EC50) is 32.7 nM. Turning to `COc1ccc(F)c(-c2ccc(COc3cccc([C@@H](CC(=O)O)C4CC4)c3)cc2C(C)(C)c2cn(CCCCCCCCCCCCCC(=O)NCC[N+](C)(CCC(=O)NCCN)CCC(=O)NCCN)nn2)c1` [Example 9], under setting [1], the EC50 was determined as 640 nM. The same measure, in the same setting: the figure for `COc1ccc(F)c(-c2ccc(COc3cccc([C@@H](CC(=O)O)C4CC4)c3)cc2CC(C)(C)Cn2cc(CCCCCCCCCCCCCCCCCC(=O)NCC[N+](C)(C)CCCS(=O)(=O)[O-])nn2)c1` [Example 48] is 4.7 nM. Still for that read-out and setting: the figure for `COc1ccc(C(=O)N(CC(C)(C)CCCCCCn2cc(CCCCCCCCCCCCCC(=O)NCCCN(CC(=O)O)CC(=O)O)nn2)c2cccc(C)n2)c(N2CCC(COc3cc([C@@H](CC(=O)O)C4CC4)ccn3)CC2)c1` [Example 206] is 0.59 nM. Take `C[C@H](C(=O)O)[C@H](c1ccc2c(c1)O[C@@H](C1CCN(Cc3cc(-n4cc(CCCCCCCCCCC(=O)NCCN(CCC(=O)NCCN)CCC(=O)NCCN)nn4)ccc3OC(F)(F)F)CC1)CC2)C1CC1` [Example 79]: the EC50 runs as follows: under setting [1], 183 nM; under setting [2], 183 nM.
